In this assay the target is T1, human GIP-R (Homo sapiens, UniProt P48546).
T1 construct: expressed in transfected cells; host or cells: HEK-293 clonal cell line
T1 sequence (P48546 22-466): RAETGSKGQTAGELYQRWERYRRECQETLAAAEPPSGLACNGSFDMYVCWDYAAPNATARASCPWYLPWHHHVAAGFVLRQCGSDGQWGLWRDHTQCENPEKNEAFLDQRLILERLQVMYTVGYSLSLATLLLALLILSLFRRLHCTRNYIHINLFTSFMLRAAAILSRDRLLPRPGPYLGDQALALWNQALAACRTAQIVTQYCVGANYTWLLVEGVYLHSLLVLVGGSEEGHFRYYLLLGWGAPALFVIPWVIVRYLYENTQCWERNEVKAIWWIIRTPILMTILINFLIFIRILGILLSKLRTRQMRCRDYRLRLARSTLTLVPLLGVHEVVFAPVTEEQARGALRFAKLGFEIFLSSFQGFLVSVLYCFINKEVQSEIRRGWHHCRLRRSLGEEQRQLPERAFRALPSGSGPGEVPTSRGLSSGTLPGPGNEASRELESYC
Description: cAMP functional activity in GIP-R-expressing HEK-293 cells, FBS and BSA. Format: cell-based. Particulars: in the presence of FBS and BSA; read-out: cAMP EC50, nM (SEM, n) GIPR.

*1 amine or outer side, *2 acyl side, *3 side chain or, on linkers, in order; H or OH if unused. Where a SMILES comes first, the peptide text is derived from it. Side-chain parts run from the residue outwards. [ ]: non-standard residue; d: D form. The star is where a group is joined. C20 diacid = O=C(O)CCCCCCCCCCCCCCCCCCC(=O)*; αMePhe(2-F) = C[C@](N)(Cc1ccccc1F)C(=O)O; γGlu = O=C(O)[C@H](CCC(=O)[*:2])N[*:1]; AEEA = NCCOCCOCC(=O)O; Aib = CC(C)(N)C(=O)O

Consider `CC[C@H](C)[C@H](NC(=O)[C@H](Cc1ccccc1)NC(=O)[C@H](C)NC(=O)C(C)(C)NC(=O)[C@H](CCC(N)=O)NC(=O)[C@H](C)NC(=O)[C@H](CCCCNC(=O)COCCOCCNC(=O)COCCOCCNC(=O)CC[C@H](NC(=O)CCCCCCCCCCCCCCCCCCC(=O)O)C(=O)O)NC(=O)[C@H](CCCCN)NC(=O)[C@H](CC(=O)O)NC(=O)[C@H](CC(C)C)NC(=O)[C@H](CC(C)C)NC(=O)[C@@H](NC(=O)[C@H](CO)NC(=O)[C@H](Cc1ccc(O)cc1)NC(=O)[C@H](CC(=O)O)NC(=O)[C@H](CO)NC(=O)[C@@H](NC(=O)[C@](C)(Cc1ccccc1F)NC(=O)[C@@H](NC(=O)CNC(=O)[C@H](Cc1c[nH]cn1)NC(=O)C(C)(C)NC(=O)[C@@H](N)Cc1ccc(O)cc1)[C@@H](C)O)[C@@H](C)O)[C@@H](C)CC)C(=O)N[C@@H](CCC(=O)O)C(=O)N[C@@H](Cc1ccc(O)cc1)C(=O)N[C@@H](CC(C)C)C(=O)N[C@@H](CC(C)C)C(=O)N[C@@H](CCC(=O)O)C(=O)NCC(=O)NCC(=O)N1CCC[C@H]1C(=O)N[C@@H](CO)C(=O)N[C@@H](CO)C(=O)NCC(=O)N[C@@H](C)C(=O)N1CCC[C@H]1C(=O)N1CCC[C@H]1C(=O)N1CCC[C@H]1C(=O)N[C@@H](CO)C(N)=O` [Example 3] (H-Y[Aib]HGT[αMePhe(2-F)]TSDYSILLDKK([AEEA-AEEA-γGlu-C20 diacid])AQ[Aib]AFIEYLLEGGPSSGAPPPS-NH2), for which the EC50 was found to be 1.37 nM.
As for `CC[C@H](C)[C@H](NC(=O)[C@H](Cc1ccccc1)NC(=O)[C@H](C)NC(=O)C(C)(C)NC(=O)[C@H](CCC(N)=O)NC(=O)[C@H](C)NC(=O)[C@H](CCCCNC(=O)COCCOCCNC(=O)CC[C@H](NC(=O)CCCCCCCCCCCCCCCCCCC(=O)O)C(=O)O)NC(=O)[C@H](CCCCN)NC(=O)[C@H](CC(=O)O)NC(=O)[C@H](CC(C)C)NC(=O)[C@H](CC(C)C)NC(=O)[C@@H](NC(=O)[C@H](CO)NC(=O)[C@H](Cc1ccc(O)cc1)NC(=O)[C@H](CC(=O)O)NC(=O)[C@H](CO)NC(=O)[C@@H](NC(=O)[C@](C)(Cc1ccccc1F)NC(=O)[C@@H](NC(=O)CNC(=O)[C@H](CCC(N)=O)NC(=O)C(C)(C)NC(=O)[C@@H](N)Cc1ccc(O)cc1)[C@@H](C)O)[C@@H](C)O)[C@@H](C)CC)C(=O)N[C@@H](CCC(=O)O)C(=O)N[C@@H](Cc1ccc(O)cc1)C(=O)N[C@@H](CC(C)C)C(=O)N[C@@H](CC(C)C)C(=O)N[C@@H](CCC(=O)O)C(=O)NCC(=O)NCC(=O)N1CCC[C@H]1C(=O)N[C@@H](CO)C(=O)N[C@@H](CO)C(=O)NCC(=O)N[C@@H](C)C(=O)N1CCC[C@H]1C(=O)N1CCC[C@H]1C(=O)N1CCC[C@H]1C(=O)N[C@@H](CO)C(N)=O` [Example 4], the EC50 is 1.37 nM.

The EC50 is the concentration that produces a half-maximal response.

For the origin of these results see patent publication US11834486B2, “Incretin analogs and uses thereof” (Eli Lilly and Company, priority 2017, dated 2023).
